Assay results as given in the supplement of paper PMC10307832.

Legend:
Experiment in all cases: relative viability (nuclei count vs DMSO), 5 days (fraction); higher = more cells survive
[1] = compound: CC1=CC(=NN1)NC2=CC(=NC(=N2)/C=C/C3=CC=CC=C3)N4CCN(CC4)C + Cc1nc(NC(=O)N2CCC[C@H]2C(N)=O)sc1-c1ccnc(C(C)(C)C(F)(F)F)c1 [Alpelisib] (partner 2 µM)
Summary of the method: (§1)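 A single step with final 0.05% Triton X-100, 1% formaldehyde and 1 ug/ml Hoechst fixed the cells and stained nuclei 5 days after treatment. Lung cancer cell lines in 1536-well plates had been treated by pin tool the day after seeding with one drug alone or a fixed anchor-drug dose plus five library-drug doses (not always all listed) in √10 steps, and nuclei were counted on 4× images. Relative viability is the ratio of nuclei in treated wells to nuclei in vehicle wells, taken as the median of duplicate plates.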

Bortezomib + AZD7762 = compound: CC(C)C[C@H](NC(=O)[C@H](Cc1ccccc1)NC(=O)c1cnccn1)B(O)O [Bortezomib] + NC(=O)Nc1cc(-c2cccc(F)c2)sc1C(=O)N[C@H]1CCCNC1 [AZD7762] (partner 0.2 µM)
Summary of the method: as §1

Obatoclax + Pemetrexed = compound: COC1=CC(c2cc3ccccc3[nH]2)=N/C1=C\c1[nH]c(C)cc1C [Obatoclax] + Nc1nc2[nH]cc(CCc3ccc(C(=O)N[C@@H](CCC(=O)O)C(=O)O)cc3)c2c(=O)[nH]1 [Pemetrexed] (partner 0.2 µM)
Summary of the method: as §1

Obatoclax + Linsitinib = compound: COC1=CC(c2cc3ccccc3[nH]2)=N/C1=C\c1[nH]c(C)cc1C [Obatoclax] + C[C@]1(O)C[C@@H](c2nc(-c3ccc4ccc(-c5ccccc5)nc4c3)c3c(N)nccn32)C1 [Linsitinib] (partner 1 µM)
Summary of the method: as §1

Cell Line: NCI-H650
- relative viability ([1]; first compound 0.08 µM): 1.12
- relative viability ([1]; first compound 0.253 µM): 1.19
- relative viability ([1]; first compound 0.8 µM): 1.03
- relative viability ([1]; first compound 2.53 µM): 0.811
- relative viability ([1]; first compound 8 µM): 0.171
- relative viability (Bortezomib + AZD7762; first compound 0.0002 µM): 0.949
- relative viability (Bortezomib + AZD7762; first compound 0.000632 µM): 1.08
- relative viability (Bortezomib + AZD7762; first compound 0.002 µM): 0.95
- relative viability (Bortezomib + AZD7762; first compound 0.006325 µM): 0.942
- relative viability (Bortezomib + AZD7762; first compound 0.02 µM): 0.289
- relative viability (Obatoclax + Pemetrexed; first compound 0.01 µM): 1.01
- relative viability (Obatoclax + Pemetrexed; first compound 0.03162 µM): 0.86
- relative viability (Obatoclax + Pemetrexed; first compound 0.3162 µM): 0.944
- relative viability (Obatoclax + Pemetrexed; first compound 1 µM): 0.443
- relative viability (Obatoclax + Linsitinib; first compound 0.01 µM): 0.874
- relative viability (Obatoclax + Linsitinib; first compound 0.03162 µM): 0.757
- relative viability (Obatoclax + Linsitinib; first compound 0.1 µM): 0.329
- relative viability (Obatoclax + Linsitinib; first compound 0.3162 µM): 0.528
- relative viability (Obatoclax + Linsitinib; first compound 1 µM): 0.425
